# Values quoted from earlier work, collected in patent US20100166856A1, “PHARMACEUTICAL COMPOSITION IN THE FORM OF COATED MICROSPHERES FOR THE MODIFIED RELEASE OF A MUSCLE RELAXANT AND AN NSAID” (LABORATORIOS SENOSIAIN S.A. DE C.V., priority 2006, published 2010).
# What was measured:
# [1] = after administration
# [2] = 22.5 mg of meloxicam
# [3] = tested on: metabolism of tizanidine; settings: combination of tizanidine with rofecoxib
structure (smiles),measurement,setting,value
Cc1cnc(NC(=O)C2=C(O)c3ccccc3S(=O)(=O)N2C)s1 [meloxicam],time at which maximum plasma concentration is reached,[1],4 to 5 h
same,time of second concentration peak,[1]; indicates gastrointestinal re-circulation,12 to 14 h
same,effect of higher dose,[2],only an increase in gastrointestinal adverse effect was observed
CS(=O)(=O)c1ccc(C2=C(c3ccccc3)C(=O)OC2)cc1 [rofecoxib],pharmacokinetic interaction with tizanidine,[3],inhibits the metabolism of tizanidine
Clc1ccc2nsnc2c1NC1=NCCN1 [tizanidine],half-life time,after oral administration,approximately 2.5 hours
same,excretion in feces,in vivo,about 20%
same,excretion in urine,in vivo,60%
